{
  "source": "patent US20160076098A1",
  "about": "“METHODS OF DIAGNOSING AND TREATING CHRONIC PAIN” (priority 2013, published 2016)",
  "key": {"β-endorphin": {"system": "β-endorphin", "assay": "β-endorphin levels in plasma of CRPS patients before and after ketamine therapy", "format": "in vivo, human", "conditions": "after vs before ketamine therapy", "protocol": "FIG. 8 is a graph showing no significant difference in the basal (pre-treatment) plasma levels of β-endorphin between patients and healthy controls. […] Shown are β-endorphin levels in the plasma from CRPS patients (responders and non-responders to ketamine therapy) before treatment and healthy controls and in CRPS patients before and after ketamine therapy. Responders; n=11, non-responders; n=6 and control; n=5. Results represent mean±SEM. The statistical significance was calculated using one-way ANOVA*: p<0.05 relative to non-responders after treatment.\nAnalgesic pathway targets were selected for validation. Cross talk between analgesic and endocrinal systems is known (FIG. 6). Pro-opiomelanocortin (POMC) is a polypetide precursor of many peptide hormones in the hypothalamopitiutary axis, including Adrenocorticotrophic hormone (ACTH), Melanocyte stimulating hormone (MSH), and Beta-endorphin. Prohormone convertase cleaves POMC yielding important hormonal peptides ACTH, MSH, […] and β-endorphin. β-endorphin is an important member of the endogenous opioid system. Its release is important in modulation of mood, pain, inflammatory responses. Several studies have linked the expression of POMC and its daughter peptide β-endorphin to placebo effect. Non-Responders to ketamine therapy had increased expression of POMC mRNA in blood relative to the responders and healthy controls (FIG. 7). […]"}, "MCP-1, IFNγ and IL-1β": {"system": "MCP-1, IFNγ and IL-1β", "assay": "Inflammatory markers in CRPS patients following ketamine treatment", "format": "in vivo, human", "conditions": "p<0.05", "excerpt": "Additional analysis comparing miRNA profiles from responders, non-responders and 20 control subjects enabled identification of additional miRNAs."}, "[1]": {"system": "miRNAs in blood of CRPS patients", "conditions": "blood of responders, after vs before ketamine treatment", "protocol": "The experiments described herein were conducted in order to determine the utility of miRNAs as biomarkers for CRPS in both the effectiveness of a treatment and the severity and progression of individual cases. As presented herein, the changes in levels of 758 miRNAs were examined in blood of 19 CRPS patients before and after ketamine treatment, using Taqman low-density array cards.\nKetamine Treatment Ketamine treatment was given to the subjects by sub-anesthetic continuous intravenous administration. Infusion started at a rate of 10 mg/hr and increased in steps of 10 mg/hr at every 2 hours to a maximum of 40 mg/hr (see FIG. 4). Blood samples were collected from CRPS patients before and after ketamine treatment. miRNA Analysis\nTotal RNA was isolated from blood samples using mirVana kit (Applied Biosystems) and cDNA synthesis was performed. Levels of 758 miRNAs were analyzed by using a Taqman low-density array (TLDA) card.\nA positive fold change indicates a higher expression of the miRNA in responders, while a negative fold change indicates a lower expression of the miRNA in responders."}, "CYP3A4": {"biological_target": "CYP3A4 (Homo sapiens, UniProt P08684)", "sequence (P08684 whole entry)": "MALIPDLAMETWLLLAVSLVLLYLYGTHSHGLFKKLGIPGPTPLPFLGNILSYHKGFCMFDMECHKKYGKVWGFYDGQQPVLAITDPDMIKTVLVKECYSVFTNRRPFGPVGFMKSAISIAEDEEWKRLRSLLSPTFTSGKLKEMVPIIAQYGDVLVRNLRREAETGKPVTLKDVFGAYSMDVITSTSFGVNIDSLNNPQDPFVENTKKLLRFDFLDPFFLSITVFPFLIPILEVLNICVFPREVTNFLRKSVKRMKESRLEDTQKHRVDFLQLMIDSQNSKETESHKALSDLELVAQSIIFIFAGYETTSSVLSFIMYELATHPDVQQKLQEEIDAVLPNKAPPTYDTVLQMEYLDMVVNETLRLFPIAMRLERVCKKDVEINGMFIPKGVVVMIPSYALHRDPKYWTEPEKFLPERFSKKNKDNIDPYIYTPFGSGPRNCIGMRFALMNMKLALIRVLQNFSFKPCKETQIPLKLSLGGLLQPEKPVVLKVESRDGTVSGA", "conditions": "known route of elimination; cited from earlier work"}, "RAW 264.7 cells": {"system": "RAW 264.7 cells", "assay": "Exosomal RNA sequencing (NGS) of naive and LPS-stimulated RAW 264.7 cells", "format": "cell-based, mouse", "conditions": "exosomal transcript level after LPS stimulation of RAW 264.7 cells compared with exosomes from naive cells", "protocol": "RAW 264.7 cells (ATCC) and RAW-Blue cells (Invivogen) were maintained in complete culture media (1×DMEM, 10% heat inactivated FBS). For exosome collection, RAW 264.7 cells (1×10^7) were plated in 150 mm dishes with complete culture media. At 24 hr, media was replaced with exosome-depleted media (1×DMEM, 10% heat-inactivated FBS depleted of exosomes by ultracentrifugation) with or without 1 μg/ml LPS (Sigma)) and incubated overnight. Media was collected in 50 ml tubes at 24 hr for exosome purification. Human THP1 macrophages were used in some experiments.\nExosome purification from cell culture media was performed as described (McDonald et al., 2013, J Visualized Exp 2013(76):e50294). […]\nThe SOLiD whole transcriptome analysis kit protocol with the fragmentation step omitted was used to generate a cDNA library for each sample. […] RNA concentration was measured using Nanodrop 1000 (NanoDrop Technologies, Wilmington, Del.). Total RNA from 3 independent exosome purifications was pooled to obtain 4 μg exosomal RNA per library (due to a limited amount of RNA in individual preparations), analyzed for integrity using the Agilent RNA 6000 Pico Kit (RNA integrity number between 1.6 and 2.1), and gel purified. […]"}, "[2]": {"system": "exosomes from human serum", "assay": "miRNA profiling of human serum-derived exosomes, patients with CRPS vs control subjects (TLDA cards)", "protocol": "Exosome purification from cell culture media was performed as described (McDonald et al., 2013, J Visualized Exp 2013(76):e50294). Centrifugation was used to remove cell debris (500×g for 10 min); the supernatant was transferred and centrifuged (16,500×g for 20 min) Cell-free supernatants were filtered (0.22 μm; VWR, Radnor, Pa.) and exosomes were pelleted by ultracentrifugation (120,000×g for 70 min) The exosomal pellet was resuspended in buffer specific to downstream experiments and vortexed 2×15 seconds. For RNA purification, RNase inhibitors were added after the first centrifugation step at 1 U/ml (RNAsin Plus; Promega, Madison, Wis.) and at all subsequent steps at 1 U/μl. […]\nTLDA microfluidic cards (Life Technologies) were used for miRNA profiling as previously described. […] For miRNAs profiled from exosomes collected from RAW 264.7 cells, significance was determined by applying a P value cutoff of 0.05 to the results of a paired-samples t test. For human exosomal miRNAs, significance was determined by applying the Benjamini-Hochberg false discovery rate correction to the results of a 2-tailed t test.\nTo determine whether exosomal miRNAs reflect the miRNA signature in whole blood of patients with CRPS, miRNAs in exosomes purified from the serum of 6 patients with CRPS and 6 healthy controls we analyzed (FIG. 38)."}, "[3]": {"conditions": "negative = lower expression following treatment"}},
  "data": [
    {"compound": "CNC1(c2ccccc2Cl)CCCCC1=O", "note": "(stereo not drawn) [ketamine]", "values": [
      {"measurement": "β-endorphin plasma level", "setting": "β-endorphin; non-responders", "result": "but not the non-responders"},
      {"measurement": "β-endorphin plasma level", "setting": "β-endorphin; responders", "result": "induced an increase in β-endorphin"},
      {"measurement": "IFNγ level", "setting": "MCP-1, IFNγ and IL-1β", "result": "decreased significantly"},
      {"measurement": "IL-1β level", "setting": "MCP-1, IFNγ and IL-1β", "result": "decreased significantly"},
      {"measurement": "MCP-1 level", "setting": "MCP-1, IFNγ and IL-1β", "result": "decreased significantly"},
      {"measurement": "Fold change RNU44.A", "setting": "[1]; [3]", "result": "−1.80"},
      {"measurement": "Fold change hsa-miR-337-3p", "setting": "[1]; [3]", "result": "−18.20"},
      {"measurement": "Fold change hsa-miR-597", "setting": "[1]; [3]", "result": "−16.23"},
      {"measurement": "Fold change hsa-miR-605", "setting": "[1]; [3]", "result": "−36.08"},
      {"measurement": "Fold change hsa-miR-650", "setting": "[1]; positive = higher expression following treatment", "result": 8.01},
      {"measurement": "Metabolism", "setting": "CYP3A4", "result": "demethylated mostly by CYP3A4 followed by conjugation with glucuronic acid"}
    ]},
    {"compound": "Gdf11", "values": [
      {"measurement": "PS/cpntrol ratio", "setting": "RAW 264.7 cells", "result": 4.82}
    ]},
    {"compound": "Pgcp", "values": [
      {"measurement": "PS/cpntrol ratio", "setting": "RAW 264.7 cells", "result": 2.94}
    ]},
    {"compound": "RNU48 (GAUGACCCCAGGUAACUCUGAGUGUGUCGCUGAUGCCAUCACCGCAGCGCUCUGACC; chemistry not fully specified; listed as Homo sapiens)", "values": [
      {"measurement": "ddct", "setting": "[2]", "result": 2.147},
      {"measurement": "fold-change", "setting": "[2]", "result": "−4.429"}
    ]}
  ]
}
